Consider 13 compounds from ChEMBL document CHEMBL1201862, “PubChem BioAssay data set” (2004).

Each structure is given as a SMILES string.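 How tested: cells in 96-well plates exposed to compound for 48 hours at five concentrations. At the GI50, growth is halved.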 Activity calls are given as the source filed them. Rule as the data show it: active = GI50 up to about 1.1 µM and inactive = higher.

Test systems include RXF 393; HL-60; CAKI-1; TK-10; HCT-15; COLO 205; HCC 2998; SNB-19; U-251; MOLT-4; SF-268; CCRF-CEM; HOP-92; IGROV-1; OVCAR-4; K562.
Holding throughout (assay): growth of human tumour cells (NCI), 48 h

Consider `COC(=O)C1C=CCC2CCCCC21N1CCCC1` (configuration not stated), for which the GI50 was > 100 µM (inactive) with RXF 393; 19.7 µM (inactive) in the assay on HL-60; > 100 µM (inactive) with CAKI-1; > 100 µM (inactive) in the assay on TK-10; more than 100 µM in the assay with HCT-15; 40.9 µM (inactive) in the assay with COLO 205. Moreover, the GI50 in the assay with HCC 2998 was 69.2 µM (inactive); in the assay with SNB-19 it was 82.2 µM (inactive); with U-251 it was 40.4 µM (inactive); in the assay on MOLT-4, 64.4 µM (inactive); in the assay with SF-268, 63.5 µM (inactive); in the assay with CCRF-CEM, 53.1 µM (inactive). In addition, the GI50 with HOP-92 is 34 µM (inactive); in the assay with IGROV-1, > 100 µM (inactive); in the assay on OVCAR-4, > 100 µM (inactive).
In the case of `O=[N+]([O-])c1ccc(/C=N/C2CCCCC2)cc1`, the GI50 in the assay with RXF 393 was > 100 µM (inactive); with HL-60, > 100 µM (inactive); with CAKI-1 it was > 100 µM (inactive); in the assay on TK-10, > 100 µM (inactive); in the assay on HCT-15, more than 100 µM; with COLO 205 it was > 100 µM (inactive). Further, the GI50 in the assay with HCC 2998, in the assay with SNB-19, in the assay with U-251, with MOLT-4, in the assay on SF-268 and in the assay on CCRF-CEM was > 100 µM (inactive) throughout. Also, the GI50 in the assay on K562, in the assay with HOP-92, in the assay with IGROV-1 and with OVCAR-4 was > 100 µM (inactive) in each case.
With `COC(=O)C1CCc2c1c(=O)n1c([nH]c3ccccc31)c2C#N` (configuration not stated), the GI50 in the assay with RXF 393 was > 100 µM (inactive); in the assay on HL-60, > 100 µM (inactive); in the assay on CAKI-1, > 100 µM (inactive); in the assay with TK-10 it was > 100 µM (inactive); in the assay on HCT-15 it was more than 100 µM; with COLO 205 it was > 100 µM (inactive). Further, the GI50 with HCC 2998, in the assay on SNB-19, in the assay on U-251, with SF-268, with CCRF-CEM and in the assay with K562 was > 100 µM (inactive) each time. Besides, the GI50 in the assay on HOP-92, with IGROV-1 and in the assay with OVCAR-4 was > 100 µM (inactive) in each case.
Consider `CC(C)NC(C)Cc1ccccc1` (configuration not stated), for which the GI50 is > 100 µM (inactive) in the assay on RXF 393; > 100 µM (inactive) in the assay with HL-60; > 100 µM (inactive) in the assay with CAKI-1; > 100 µM (inactive) in the assay on TK-10; 3.97 µM in the assay on HCT-15; > 100 µM (inactive) in the assay with COLO 205. The GI50 in the assay with HCC 2998, with SNB-19, with U-251, in the assay on SF-268, in the assay on CCRF-CEM and with K562 was > 100 µM (inactive) throughout. In addition, the GI50 in the assay with HOP-92, in the assay with IGROV-1 and in the assay on OVCAR-4 was > 100 µM (inactive) each time.
For `COC(=O)/C(C)=C(/CCC1(C)OCCO1)O[Si](C)(C)C`, the GI50 with RXF 393 was > 100 µM (inactive); in the assay with HL-60, > 100 µM (inactive); in the assay on CAKI-1 it was > 100 µM (inactive); in the assay on TK-10 it was > 100 µM (inactive); with HCT-15 it was more than 100 µM; in the assay with COLO 205, > 100 µM (inactive). In addition, the GI50 in the assay with HCC 2998, in the assay on SNB-19, in the assay on U-251, in the assay with MOLT-4, in the assay on SF-268 and in the assay on CCRF-CEM was > 100 µM (inactive) in each case. Further, the GI50 in the assay on K562, with HOP-92, with IGROV-1 and in the assay on OVCAR-4 was > 100 µM (inactive) throughout.
`C#CCN(C(=O)C(F)(F)F)c1ccc(C(=O)c2ccc(N(CC#C)C(=O)C(F)(F)F)cc2)cc1`: the GI50 in the assay with RXF 393 is 35.3 µM (inactive); in the assay with HL-60, 12.9 µM (inactive); in the assay on TK-10, 48.6 µM (inactive); with HCT-15, 24.6 µM; with COLO 205 it was 30.8 µM (inactive); in the assay on HCC 2998, 40.9 µM (inactive). Moreover, the GI50 in the assay on SNB-19 is 46.5 µM (inactive); with U-251, 31.6 µM (inactive); in the assay on MOLT-4, 15.1 µM (inactive); in the assay with SF-268 it was 38.4 µM (inactive); in the assay with CCRF-CEM, 25.1 µM (inactive); in the assay with K562, 21 µM (inactive). For the same compound, the GI50 is 34.8 µM (inactive) in the assay with HOP-92, 33.1 µM (inactive) in the assay with IGROV-1 and 28.7 µM (inactive) in the assay with OVCAR-4.
As for `CC(=O)NC(CC(C)C)C(=O)NC(Cc1ccccc1)C(=S)N1CCCC1` (configuration not stated), the GI50 was > 100 µM (inactive) in the assay with RXF 393; > 100 µM (inactive) in the assay on HL-60; > 100 µM (inactive) with CAKI-1; > 100 µM (inactive) in the assay on TK-10; more than 100 µM in the assay on HCT-15; > 100 µM (inactive) in the assay with COLO 205. The GI50 with HCC 2998, in the assay on SNB-19, in the assay on U-251, in the assay on MOLT-4, with SF-268 and with CCRF-CEM was > 100 µM (inactive) each time. The GI50 with K562, with HOP-92, with IGROV-1 and in the assay on OVCAR-4 was > 100 µM (inactive) throughout.
Turning to `CCOC(=O)NC(=O)c1cn(-c2ccc(CCOC(=O)NCCCCCCNC(=O)OCCc3ccc(-n4c(=O)[nH]cc(C(=O)NC(=O)OCC)c4=O)cc3)cc2)c(=O)[nH]c1=O`, the GI50 with RXF 393 is > 100 µM (inactive); in the assay on HL-60, > 100 µM (inactive); with CAKI-1 it was > 100 µM (inactive); in the assay on TK-10, 58.3 µM (inactive); in the assay on HCT-15, more than 100 µM; in the assay with COLO 205, > 100 µM (inactive). For the same compound, the GI50 is > 100 µM (inactive) in the assay with HCC 2998; 23.2 µM (inactive) in the assay with SNB-19; 33.2 µM (inactive) in the assay on U-251; 58.1 µM (inactive) in the assay on MOLT-4; > 49 µM (inactive) in the assay on SF-268; 32.6 µM (inactive) in the assay with CCRF-CEM. Also, the GI50 was > 100 µM (inactive) with K562, > 72.4 µM (inactive) with HOP-92, 75.2 µM (inactive) in the assay with IGROV-1 and > 100 µM (inactive) with OVCAR-4.
On to `CCOC(=O)NN(C(=O)OCC)C(C(=O)c1ccc(Cl)cc1)=C1NCCN1`, for which the GI50 in the assay on RXF 393, in the assay on HL-60, in the assay with CAKI-1, in the assay on TK-10, in the assay with COLO 205 and in the assay with HCC 2998 was > 100 µM (inactive) throughout. Besides, the GI50 with SNB-19, with U-251, in the assay with MOLT-4, in the assay on SF-268, in the assay on CCRF-CEM and with K562 was > 100 µM (inactive) each time. Moreover, the GI50 with HOP-92, in the assay with IGROV-1 and in the assay with OVCAR-4 was > 100 µM (inactive) each time.
In the case of `O=C(O)c1ccc(S(=O)(=O)c2ccccc2)c([N+](=O)[O-])c1`, the GI50 with RXF 393 is > 100 µM (inactive); in the assay with HL-60 it was > 100 µM (inactive); with CAKI-1 it was > 100 µM (inactive); in the assay with TK-10 it was > 100 µM (inactive); in the assay on HCT-15 it was 93.1 µM; in the assay on COLO 205, > 100 µM (inactive). The GI50 with HCC 2998, in the assay on SNB-19, with U-251, in the assay with MOLT-4, with SF-268 and in the assay with CCRF-CEM was > 100 µM (inactive) each time. Moreover, the GI50 with K562, with HOP-92, in the assay on IGROV-1 and in the assay with OVCAR-4 was > 100 µM (inactive) in each case.
For `CCOC(=O)[C@H](CCCNC(=O)OC(C)(C)C)NCc1ccc(OC)c(OC)c1`, the GI50 with RXF 393, in the assay on HL-60, with CAKI-1, in the assay on TK-10, with COLO 205 and in the assay on HCC 2998 was > 100 µM (inactive) in each case. In addition, the GI50 in the assay on SNB-19, in the assay on U-251, with MOLT-4, in the assay on SF-268, with CCRF-CEM and with K562 was > 100 µM (inactive) in each case. Also, the GI50 with HOP-92, in the assay on IGROV-1 and in the assay on OVCAR-4 was > 100 µM (inactive) in each case.
In the case of `O=C(NC1C=Nc2ccccc2NC1=O)c1ccccc1Cl` (configuration not stated), the GI50 in the assay with RXF 393 was 13 µM (inactive); in the assay on HL-60 it was 13.5 µM (inactive); in the assay on CAKI-1, 46.8 µM (inactive); in the assay with TK-10, 46.2 µM (inactive); in the assay with HCT-15, 33.7 µM; in the assay on COLO 205, 22.7 µM (inactive). Moreover, the GI50 is 56.4 µM (inactive) in the assay on HCC 2998; > 100 µM (inactive) with SNB-19; 28.8 µM (inactive) in the assay with U-251; 12.6 µM (inactive) in the assay on MOLT-4; 51.9 µM (inactive) in the assay with SF-268; 14 µM (inactive) in the assay with CCRF-CEM. Further, the GI50 in the assay on K562 was 11.1 µM (inactive); in the assay on HOP-92 it was 31.4 µM (inactive); in the assay on IGROV-1 it was 36.8 µM (inactive); in the assay on OVCAR-4 it was 33.3 µM (inactive).
Consider `O=c1cnn2c(n1)sc1ccc3ccccc3c12`, for which the GI50 is > 100 µM (inactive) with RXF 393; 83.9 µM (inactive) in the assay with HL-60; > 100 µM (inactive) in the assay with CAKI-1; > 100 µM (inactive) in the assay on TK-10; more than 100 µM in the assay with HCT-15; > 100 µM (inactive) with COLO 205. In addition, the GI50 in the assay with HCC 2998 is > 100 µM (inactive); in the assay with SNB-19, > 100 µM (inactive); with U-251, > 100 µM (inactive); in the assay on MOLT-4, 30.1 µM (inactive); in the assay on SF-268, > 100 µM (inactive); in the assay with CCRF-CEM, 63.5 µM (inactive). Besides, the GI50 in the assay on K562, in the assay with HOP-92, in the assay with IGROV-1 and with OVCAR-4 was > 100 µM (inactive) throughout.
